In US8785655B2, “Ionic liquid solvents” (Dublin City University, priority 2009, dated 2014):

Key:
[1] = system: Candida lusitaniae 2446/l; test: In vitro antifungal activity, MIC by microdilution (NCCLS M27-A); conditions: CL
[2] = system: Aspergillus fumigatus 231; test: as above; conditions: AF
Experimental: (§1) In vitro antifungal activities of the compounds were evaluated on the collection of fungal strains deposited at the Department of Biological and Medical Sciences, Faculty of Pharmacy, Charles University, Czech Republic. All the isolates were maintained on Sabouraud dextrose agar prior to being tested.
(§2) Minimum inhibitory concentrations (MICs) were determined by the microdilution format of the NCCLS M27-A guidelines. […] RPMI 1640 (Sevapharma, Prague) medium supplemented with L-glutamine and buffered with 0.165 M morpholinepropanesulfonic acid to pH 7.0 was used as the test medium. The wells of the microdilution tray contained 100 μl of the RPMI 1640 medium with 2-fold serial dilutions of the compounds (1000 to 0.24 μmol/l for the new compounds) and 100 μl of inoculum suspension. Fungal inoculum in RPMI 1640 was prepared to give a final concentration of 5×103±0.2 cfu·ml-1. The trays were incubated at 35° C. and MICs were read visually for filamentous fungi and photometrically for yeasts as an optical density (OD) at 540 nm after 24 h and 48 h. The MICs were defined as 80% inhibition of the growth of control. MICs were determined twice and in duplicate. The deviations from the usually obtained were no higher than the nearest concentration value up and down the dilution scale.

[3] = system: Klebsiella pneumoniae D 11750/08; test: Screen against bacteria, MIC/IC80; assay type: cell-based; conditions: KP
[4] = system: Enterococcus sp. J 14365/08; test: Screen against bacteria, MIC/IC80; assay type: cell-based; conditions: EF
Candida tropicalis 156 = test: In vitro antifungal activity, MIC by microdilution (NCCLS M27-A); conditions: CT
Experimental: as §1, §2

[5] = system: Candida albicans ATCC 44859; test: as above
Experimental: as §1, §2

[6] = system: Pseudomonas aeruginosa CCM 1961; test: Screen against bacteria, MIC/IC80; assay type: cell-based; conditions: PA
Escherichia coli CCM4517 = test: Screen against bacteria, MIC/IC80; assay type: cell-based; conditions: EC
Absidia corymbifera 272 = test: In vitro antifungal activity, MIC by microdilution (NCCLS M27-A); conditions: AC
Experimental: as §1, §2

[7] = system: Candida parapsilosis ATCC 22019; test: as above; conditions: CP
[8] = system: Staphylococcus aureus CCM 4516/08; test: Screen against bacteria, MIC/IC80; assay type: cell-based; conditions: SA
Candida krusei ATCC 6258 = test: In vitro antifungal activity, MIC by microdilution (NCCLS M27-A)
Candida glabrata 20/l = test: as above; conditions: CG
[9] = system: Trichophyton mentagrophytes 445; test: as above; conditions: TM
Experimental: as §1, §2

[10] = system: Staphylococcus epidermidis H 6966/08; test: Screen against bacteria, MIC/IC80; assay type: cell-based; conditions: SE
[11] = system: Candida albicans ATCC 90028; test: In vitro antifungal activity, MIC by microdilution (NCCLS M27-A)
Experimental: as §1, §2

[12] = system: Staphylococcus aureus H 5996/08 Methiciline-resistant; test: Screen against bacteria, MIC/IC80; assay type: cell-based; conditions: MRSA
[13] = system: Klebsiella pneumoniae J 14368/08 ESBL-positive; test: Screen against bacteria, MIC/IC80; assay type: cell-based; conditions: KP-E
Candida krusei E28 = test: In vitro antifungal activity, MIC by microdilution (NCCLS M27-A)
Experimental: All the isolates were maintained on Sabouraud dextrose agar prior to being tested.
as §2

Measured: MIC/IC80

COC(=O)C(OC(=O)C[n+]1ccn(C)c1)c1ccccc1 (stereo not shown) [KG86, RS-3-methyl-1-[1-(methoxycarbonyl)-1-phenylmethoxycarbonylmethyl]imidazolium octyl sulphate]
>1000 µmol/L: [1]; 24 h | [2]; 24 h | [3]; 24 h | [4]; 24 h | Candida tropicalis 156; 24 h | [5]; CA1, 24 h | [6]; 24 h | Escherichia coli CCM4517; 24 h | Absidia corymbifera 272; 24 h | [7]; 24 h | [8]; 24 h | Candida krusei ATCC 6258; CK1, 24 h | Candida glabrata 20/l; 24 h | [9]; 72 h | [10]; 24 h

CCCCCCCCOS(=O)(=O)[O-].COC(=O)[C@@H](OC(=O)Cn1cc[n+](C)c1)c1ccccc1 [KG88, S-3-methyl-1-[1-(methoxycarbonyl)-1-phenylmethoxycarbonylmethyl]imidazolium octyl sulphate]
>1000 µmol/L: [1]; 24 h | [1]; 48 h | [11]; CA2, 24 h | [11]; CA2, 48 h | [2]; 24 h | [2]; 48 h | [3]; 24 h | [3]; 48 h | [4]; 24 h | [4]; 48 h | Candida tropicalis 156; 24 h | Candida tropicalis 156; 48 h | [5]; CA1, 24 h | [5]; CA1, 48 h | [6]; 24 h | [6]; 48 h | Escherichia coli CCM4517; 24 h | Escherichia coli CCM4517; 48 h | Absidia corymbifera 272; 24 h | Absidia corymbifera 272; 48 h | [7]; 24 h | [7]; 48 h | [8]; 24 h | [8]; 48 h | Candida krusei ATCC 6258; CK1, 24 h | Candida krusei ATCC 6258; CK1, 48 h | Candida glabrata 20/l; 24 h | Candida glabrata 20/l; 48 h | [12]; 24 h | [12]; 48 h | [9]; 72 h | [9]; 120 h | [13]; 24 h | [13]; 48 h | Candida krusei E28; CK2, 24 h | Candida krusei E28; CK2, 48 h | [10]; 24 h | [10]; 48 h

COC(=O)C(OC(=O)C[n+]1ccn(C)c1)c1ccccc1 (stereo not shown) [KG89, RS-3-methyl-1-[1-(methoxycarbonyl)-1-phenylmethoxycarbonylmethyl]imidazolium bromide]
>1000 µmol/L: [1]; 24 h | [1]; 48 h | [11]; CA2, 24 h | [11]; CA2, 48 h | [2]; 24 h | [2]; 48 h | [3]; 24 h | [3]; 48 h | [4]; 24 h | [4]; 48 h | Candida tropicalis 156; 24 h | Candida tropicalis 156; 48 h | [5]; CA1, 24 h | [5]; CA1, 48 h | [6]; 24 h | [6]; 48 h | Escherichia coli CCM4517; 24 h | Escherichia coli CCM4517; 48 h | Absidia corymbifera 272; 24 h | Absidia corymbifera 272; 48 h | [7]; 24 h | [7]; 48 h | [8]; 24 h | [8]; 48 h | Candida krusei ATCC 6258; CK1, 24 h | Candida krusei ATCC 6258; CK1, 48 h | Candida glabrata 20/l; 24 h | Candida glabrata 20/l; 48 h | [12]; 24 h | [12]; 48 h | [9]; 72 h | [9]; 120 h | [13]; 24 h | [13]; 48 h | Candida krusei E28; CK2, 24 h | Candida krusei E28; CK2, 48 h | [10]; 24 h | [10]; 48 h
